Experimental data published in patent US20120309734A1, “COMBRETASTATIN DERIVATIVES AND USES THEREFOR” (priority 2009, published 2012).

Tests used:
[1] = tested on: breast carcinoma MDA-MB-231 cells; experiment: Transwell migration assay; assay type: cell-based, human; settings: 50 nM, 6 h
Protocol: FIG. 12 illustrates the migration of breast carcinoma MDA-MB-231 cells across transwell filters in the presence of vehicle (0.5% (v/v) ethanol) or 50 nM compound 4. Migration was expressed as a percentage of migration of vehicle-treated cells (100%). MDA-MB-231 cells (cultured as described supra) were seeded at a density of 2.5×10^4 cells/well onto 24-well Falcon migration inserts (8 μm pore size) in serum-free medium. Inserts were placed into Falcon companion plates containing 20% FBS and either vehicle (0.5% (v/v) ethanol) or 50 nM compound 4 and incubated for 6 h. The upper surfaces of the inserts were swabbed to remove non-migrated cells. Migrated cells on the underside of the membrane were fixed in methanol, stained with Mayers Hematoxylin, dehydrated in methanol and mounted on a glass slide. The number of cells in 5 fields at 10× magnification was counted. […] P-values were determined using a two-tailed Student's paired t-test. A value of P<0.05 was considered to be significant. Incubation for 6 h with compound 4 prevented MDA-MB-231 cell migration by 95.7% (***P<0.0001).

[2] = tested on: HL-60-MDR(PGP); experiment: Alamar Blue cell viability assay; assay type: cell-based, human
Protocol: Three drug resistant cell lines and respective parental cell lines were assessed. […] Western blot analysis confirmed the overexpression of p-glycoprotein and BCRP in respective cell lines.
Cells were exposed to multiple concentrations of the indicated compound for 72 h. Cell viability was assessed using the Alamar blue assay and respective IC50 values were calculated. The resistance factor (RF) was calculated by dividing the IC50 of the resistant cell line/IC50 of the parental cell line.
All cells were cultured in RPMI-1640 Glutamax medium supplemented with 10% FCS media, 100 units/ml penicillin and 100 μg/mIstreptomycin. Cells were maintained at 37° C. in 5% CO2 in a humidified incubator.
The reduction of Alamar Blue is proportional to the number of viable cells. Cells (200 μl) were plated in triplicate in a 96-well plates (K562, 100,000/ml; HL-60, 300,000/ml; A-2780 50,000/ml). A-2780 cells were plated 24 h prior to treatment. Suspension cells were plated in the log phase of growth and treated immediately. The cells were then treated with either medium alone, vehicle (1% ethanol v/v or 0.1% DMSO v/v) or with a range of concentrations of drug [0.001-10 μM]. After 72 h, Alamar Blue was added to each well (10% of final volume) and fluorescence was read using a 96-well fluorometer with excitation at 530 nm and emission of 590 nm. The blank solution consisted of medium and Alamar Blue and the blank solution was used to calibrate the spectrophotometer to zero absorbance. The relative cell viability (%) related to control wells and was calculated by [A]test/[A]control×100 where [A]test is the absorbance of the drug treated cells and [A]control the absorbance of the vehicle control treated cells. Dose response curves were plotted and IC50 values (concentration of drug resulting in 50% reduction in cell survival) were obtained using the commercial software package Prism (GraphPad Software, Inc., La Jolla, USA). Experiments were performed in triplicate on at least three separate occasions.

[3] = tested on: HUVEC cells; experiment: HUVEC DNA content by flow cytometry (PI); assay type: cell-based, human; settings: 24 h
Protocol: FIG. 8 illustrates the anti-proliferative response of endothelial cells to compound 4. HUVEC cells were treated with vehicle (0.5% (v/v) ethanol) or the indicated concentrations of 4 for 24 h and fixed by a drop-wise addition of ice-cold ethanol. Cells were then stained with 0.15 mg/ml propidium iodide (PI) and their DNA content assessed using a FACSCalibur flow cytometer (Becton Dickinson, San Jose, Calif., USA). Data collections (10,000 events per sample) were gated to exclude cell debris and cell aggregates. Analysis of data was performed using the CellQuest software (Becton Dickinson). PI fluorescence was proportional to the amount of DNA present in each entity and therefore indicated the stage of the cell cycle. Cells in the subG0/G1 phase (<2N DNA) were deemed apoptotic, while cells with 4N quantities of DNA were considered to be in the G2/M phase of the cell cycle. Values represent the mean±S.E.M for three independent experiments.

[4] = tested on: HUVECs; experiment: VEGF-stimulated transwell migration assay; assay type: cell-based; settings: Homo sapiens, HUVEC; 50 nM, 6 h, 10 ng/ml VEGF
Protocol: This modified transwell migration assay consisted of an upper and a lower chamber separated by a membrane. Migration of HUVECs from the upper to the lower chamber was stimulated by addition of VEGF to the lower chamber. The effect of compound 4 on this migration was determined by its addition along with VEGF into the lower chamber. Migration was expressed as a percentage of migration in control chambers treated with the vehicle (100%). HUVECs 10,000 cells in […] medium were seeded onto fibronectin-coated […] transwell inserts in 24-well plates containing medium. HUVEC migration was stimulated by the addition of 10 ng/ml VEGF to the lower wells. Vehicle (0.5% (v/v) ethanol) or compound 4 (50 nM) were also added to the lower wells. After 6 h, the upper surfaces of the inserts were swabbed to remove non-migrated cells. Filters containing the migrated cells were stained with 0.5% toulidine blue 0 and 0.5% sodium tetraborate. The cells were solubilised in 0.2% (w/v) SDS in 20 mM Tris-HCl, pH 7.7 and staining quantified as absorbance at 650 nm. […] P-values were determined using a two-tailed Student's paired t-test. A value of P<0.05 was considered to be significant.

[5] = tested on: primary endothelial cell (HUVEC); experiment: Endothelial cell proliferation, AlamarBlue; assay type: cell-based; settings: Homo sapiens, 72 h, read-out: IC50, proliferation of HUVECs
Protocol: A range of concentrations of cis β-lactam 4, were tested on primary endothelial cell (HUVEC) proliferation. HUVEC cells (20,000 cells/well) were seeded onto 96-well plates for 24 h and treated in triplicate with vehicle alone (1% (v/v) ethanol) or a range of concentrations of compound 4 for 72 h. The cells were then incubated in 10% (v/v) AlamarBlue and its reduction to a fluorescent state measured at excitation 544 nm and emission 590 nm using a multi-well fluorimeter. The results were expressed as the percentage cell proliferation relative to vehicle-treated control cells (100%). Values represent the mean±the S.E.M for three separate experiments. IC50 values were obtained using Prism GraphPad 4.
Pooled primary human umbilical vein endothelial cells (HUVECs) and their associated reagents were all obtained from Cascade Biologics, Invitrogen, Carlsbad, Calif., USA. HUVECs were maintained between passages 1-4 in Medium 200 supplemented with LSGS (low serum growth factor supplement) and utilised for experiments at passage 4.

[6] = tested on: primary CML cells (BCR-ABL-positive); experiment: Apoptosis in ex vivo CML cells, annexin V staining; assay type: cell-based, human; settings: 72 h
From the text: This study is the first pre-clinical evaluation of combretastatins in the treatment of chemotherapy naive and patients with acquired imatinib mesylate resistance (refractory or relapsed disease despite adequate dose and duration). Imatinib mesylate is the first line treatment in BCR-ABL-positive CML chemotherapy. BCR-ABL, a constitutively active protein tyrosine kinase is a product of the Philadelphia chromosome (Ph) translocation t(9;22) and plays a central role in the pathogenesis of CML. […] All cells were treated with a clinically achievable concentration of imatinib mesylate (indicated as STI in FIG. 3) [250 nM]. […] The percentage apoptosis was determined by flow cytometric analysis of annexin-V stained cells.
The percentage of apoptosis in ex-vivo CML cells was determined by annexin V staining. […] Cells were collected by centrifugation at 400×g for 5 min and resuspended in anti-CD-45 diluted 1:50 in RPMI medium. Following a 10 min incubation in the dark at room temperature, cells were centrifuged and washed in Annexin binding buffer (Biosource, Nivelles, Belgium). Cells were again centrifuged and resuspended in Annexin-V-FITC (IQ products, Netherlands) diluted in Annexin binding buffer (1:50). Samples were next incubated in the dark on ice for 15 min. Annexin binding buffer (1 ml) was added to each sample. Samples were collected by centrifugation and resuspended in 0.5 ml of Annexin binding buffer. Cells were read immediately by flow cytometry and analysed by Cellquest software. CML cells were selected and gated based on their low to medium side scatter and low CD45 expression.

In the case of `COc1ccc(C2C(c3ccccc3)C(=O)N2c2cc(OC)c(OC)c(OC)c2)cc1O` (centres unmarked) [Compound 4, 4-(3-Hydroxy-4-methoxyphenyl)-3-phenyl-1-(3,4,5-trimethoxyphenyl)-azetidin-2-one], the “prevention of MDA-MB-231 cell migration” value [1] is reported as 95.7%, the IC50 ([2]; Homo sapiens, HL60/MDR, HL-60-MDR(PGP), 72 h, Alamar blue, read-out: IC50) is reported as 18.2 nM and the RF ([2]; IC50 HL-60-MDR(PGP) / IC50 HL-60 parental) is reported as 1.03. For the same compound, the “effect on levels of apoptosis or G2/M” value ([3]; 1 nM) was “not sufficient to affect the levels of apoptosis or G2/M”, the “apoptosis (subG0/G1)” value ([3]; 10 nM) was 35.1% and the “cells in the G2/M phase” value ([3]; 10 nM) was 36.9%. For the same compound, the “apoptosis (subG0/G1)” value ([3]; 50 nM) was 31.4%, the “cells in the G2/M phase” value ([3]; 50 nM) was 37.0% and the “apoptosis (subG0/G1)” value ([3]; 100 nM) was 28.0%. For the same compound, the “cells in the G2/M phase” value ([3]; 100 nM) was 39.8%, the inhibition at 0.05 µM [4] was 74% and the IC50 [5] was 4 nM. For the same compound, the “apoptosis induction compared with imatinib mesylate” value ([6]; 250 nM each, patient samples) was “more effective inducers of apoptosis than imatinib mesylate” and the “apoptosis in primary CML cells” value ([6]; 250 nM, chemotherapy naïve (4 samples) and imatinib mesylate resistant (2 samples)) was “induced apoptosis”.
